According to PMC9217967, “Simultaneous production and sustainable eutectic mixture based purification of narringinase with Bacillus amyloliquefaciens by valorization of tofu wastewater” (Scientific Reports, 2022):

Tested on: T1, naringinase
T1 construct: native enzyme from culture, NADES extractive fermentation, Sephadex G-15 and DEAE-Sepharose; a beta-glucosidase activity (prunin to naringenin) may be included
Test: Lineweaver-Burk; modified Davis assay, residual naringin at […] nm
Format: biochemical, Bacillus amyloliquefaciens
Conditions: general assay: acetate buffer pH 4.2, 333 K, 60 min; printed unit is not a concentration; printed kcat/Km fits 1.5 × 10^-3 M

Km: 1500 µM
SMILES: C[C@@H]1O[C@@H](O[C@H]2[C@H](Oc3cc(O)c4c(c3)O[C@H](c3ccc(O)cc3)CC4=O)O[C@H](CO)[C@@H](O)[C@@H]2O)[C@H](O)[C@H](O)[C@H]1O [Naringin]
